# Reference: patent US20220306603A1, “TARGETING DNA REPAIR IN TUMOR CELLS VIA INHIBITION OF ERCC1-XPF” (The Governors of the University of Alberta, priority 2019, published 2022)
# “Also recorded” adds a separate entry of the source. Like-named read-outs stand apart in the source and are kept apart here.
# Columns and labels:
# [1] = Stability of the compound over time; assay type: physicochemical
# [2] = target: T1, ERCC1-XPF (Homo sapiens, UniProt Q92889); assay: Microplate fluorescence incision assay of ERCC1-XPF endonuclease activity; assay type: biochemical; conditions: for IC50: at least three experiments of Vo versus concentration; for inhibition of ERCC1-XPF endonuclease activity (in words): compounds 10 μM each
# T1 construct: His6; made in house; host or cells: E. coli BL21 (DE3)
# T1 sequence (Q92889 1-916): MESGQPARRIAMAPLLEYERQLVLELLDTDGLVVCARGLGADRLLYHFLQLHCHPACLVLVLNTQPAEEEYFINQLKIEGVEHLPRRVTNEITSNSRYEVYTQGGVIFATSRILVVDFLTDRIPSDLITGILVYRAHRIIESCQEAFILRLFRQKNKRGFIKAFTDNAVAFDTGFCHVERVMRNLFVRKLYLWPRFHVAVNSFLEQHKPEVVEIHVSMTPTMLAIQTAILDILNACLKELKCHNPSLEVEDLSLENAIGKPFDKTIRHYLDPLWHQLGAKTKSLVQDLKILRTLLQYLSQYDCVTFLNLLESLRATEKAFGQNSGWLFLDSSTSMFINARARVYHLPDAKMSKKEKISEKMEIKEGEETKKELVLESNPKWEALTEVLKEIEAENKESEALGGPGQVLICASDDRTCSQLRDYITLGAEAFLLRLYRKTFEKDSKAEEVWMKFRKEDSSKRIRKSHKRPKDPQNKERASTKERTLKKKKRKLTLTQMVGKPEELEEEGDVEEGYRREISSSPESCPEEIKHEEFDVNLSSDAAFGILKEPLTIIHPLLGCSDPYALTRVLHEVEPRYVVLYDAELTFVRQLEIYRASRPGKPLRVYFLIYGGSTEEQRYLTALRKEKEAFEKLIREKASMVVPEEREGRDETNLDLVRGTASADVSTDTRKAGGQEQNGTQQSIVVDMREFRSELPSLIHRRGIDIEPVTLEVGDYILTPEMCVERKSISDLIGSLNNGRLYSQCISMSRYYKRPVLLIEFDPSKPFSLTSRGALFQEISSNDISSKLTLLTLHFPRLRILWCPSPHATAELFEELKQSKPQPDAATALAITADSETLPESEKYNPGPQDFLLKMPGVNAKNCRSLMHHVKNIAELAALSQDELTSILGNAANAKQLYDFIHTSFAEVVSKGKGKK
# Text: This assay has been previously described (29), and utilizes a stem-loop substrate (composed of a 10mer-duplex stem and a 20mer-oligodT single-strand loop), labelled on the 5′-terminus with 6-FAM and 3′ with the quencher dabcyl.
# Human ERCC1-XPF wild-type protein was obtained as previously described (29). Basically, the recombinant protein was expressed from a bicistronic plasmid (provided by Dr. Richard Wood, University of Texas MD Anderson Cancer Center, Smithville, Tex.) in the E. coli BL21 (DE3) strain. Since both XPF and ERCC1 contained a polyhistidine (His-6) tag, the proteins extracted from E. coli were incubated with a ProBond Nickel-Chelating Resin (Thermo Fisher Scientific). Protein eluted from the Ni affinity column was subsequently loaded into a Hi-trap heparin column (GE Healthcare). Fractions recovered from the heparin column that contained ERCC1-XPF were dialyzed, concentrated and stored at −80° C. in 10 mM HEPES pH 7.4, 2.5 mM p-mercaptoethanol, 0.01% CHAPS, 0.25 mM EDTA, 50% glycerol and 25 mM NaCl.
# A previously described protocol (2,29) was followed.
# [3] = target: T2, ERCC1-XPF complex (Homo sapiens, UniProt Q92889); assay: Steady-state intrinsic tryptophan fluorescence quenching binding assay
# T2 construct: His6; made in house; host or cells: E. coli BL21 (DE3)
# T2 sequence (Q92889 1-916): T1 sequence (Q92889 1-916)
# Method: Steady-state fluorescence spectra were measured at room temperature on a Perkin-Elmer LS-55 spectrofluorometer (Freemont, Calif.) with 5 nm spectral resolution for excitation and emission using 30-80 nM solution of purified recombinant ERCC1-XPF protein complex. […] In studying the effects of inhibitors on protein fluorescence intensities, additions to protein samples were made from inhibitors stock solutions, keeping the protein dilution below 3%.
# [4] = test system: HCT116 cells; assay: Cellular repair of UV-induced cyclobutane pyrimidine dimers (immunofluorescence); assay type: cell-based, human; conditions: 8 J/m^2 UV-C, up to 24 h post-irradiation
# Method: Protocol of Mirzayans et al. was followed with minor modifications (30). Approximately 1×10^5 HCT116 cells were seeded on each coverslip and allowed to attach overnight. Medium was then removed and cells were treated for one hour with the desired compound. The medium was removed, and cells were exposed to 8 J/m^2 UV-C radiation (G15T8 254 nm lamp, Ushio America Inc, Cypress, Calif.) followed by adding fresh medium containing the compound. Plates were incubated at 37° C. for different periods of time up to 24 hours and fixed in 50:50 methanol/1× phosphate-buffered saline (PBS) solution, followed by replacing the methanol/PBS solution with 100% methanol and incubation in −20° C. After 20 minutes, methanol was removed, and cells were treated with PBS for 5 minutes in room temperature. After fixing, cells were permeabilized in 0.5% Triton/PBS and washed with PBS, denatured in 2 N HCl, and neutralized by twice washing with 0.1 M borate buffer pH 8.5. Cells on cover slips were washed once with PBS followed by blocking with 5% non-fat dry milk/PBS for 30 minutes. Mouse anti-thymine dimer monoclonal antibody (Cat. No. MC-062, Kamiya Biomedical Company, Seattle, Wash.) was applied to the cover slips for one hour in the dark and at room temperature. Cells were then washed with PBS containing 0.1% Tween-20 and incubated with rabbit anti-mouse IgG-Alexafluor antibody (Invitrogen, Carlsbad, Calif.) followed by two washes with PBS/(0.1%)Tween-20. Cells on coverslips were then washed with PBS, rinsed with water, and mounted on slides using DAPI glycerol mounting solution. Slides were kept at 4° C. before fluorescent microscopic evaluation and measurement of fluorescence intensity with MetaXpress Version: 6.2.1.704 software (Molecular Devices, Sunnyvale, Calif.).
# To test for inhibition of nucleotide excision repair, we monitored the cellular removal of UVC-induced cyclobutane pyrimidine dimers (CPDs) in HCT116 cells over a 24-hour period using an immunochemical assay.
# [5] = ADME screening: solubility; assay type: physicochemical; conditions: Table 8
# [6] = ADME screening: LogD
# [7] = ADME screening: cell permeability and efflux ratio; conditions: Table 8
# [8] = Microsomal stability in vitro (human liver microsomes); conditions: Table 8
# [9] = test system: HCT116 cells; assay: Clonogenic survival assay, cyclophosphamide treatment; assay type: cell-based, human; conditions: cyclophosphamide 0-300 μM; compound 1-4 μM
# Method: Plates were incubated for another 8 days at 37° C. in a 5% CO2 atmosphere for colony formation. After this period plates were stained with crystal violet, colonies were counted, and plating efficiency and surviving fraction were calculated.
compound,measurement,setting,value
"COc1ccc2nc3cc(Cl)ccc3c(Nc3ccc(O)c(CN4CCN(Cc5cccc(C)c5)CC4)c3)c2c1 [Compound A2, 4-((6-Chloro-2-methoxyacridin-9-yl)amino)-2-((4-(3-methylbenzyl)piperazin-1-yl)methyl)phenol]",stability over time (in words),[1],instability over time
"COc1ccc2nc3cc(Cl)ccc3c(Nc3ccc(O)c(CN4CCN(C5CCCCC5)CC4)c3)c2c1 [Compound A3, 4-((6-Chloro-2-methoxyacridin-9-yl)amino)-2-((4-cyclohexylpiperazin-1-yl)methyl)phenol]",IC50,"[2]; Table 6, 30 minutes incubation, 5% DMSO, read-out: IC50 ± SD",380 ± 100 nM
same,inhibition of ERCC1-XPF endonuclease activity (in words),[2],marked capacity to inhibit; also recorded: potent inhibitors
same,Kd,"[3]; Table 6, read-out: Kd ± SD",145 ± 5 nM
"COc1ccc2nc3cc(Cl)ccc3c(Nc3ccc(O)c(CN4CCN(c5ccc(Cl)c(Cl)c5)CC4)c3)c2c1 [Compound A5, 4-((6-Chloro-2-methoxyacridin-9-yl)amino)-2-((4-(3,4-dichlorophenyl)piperazin-1-yl)methyl)phenol]",inhibition of ERCC1-XPF endonuclease activity (in words),[2],very limited inhibition
same,quenching of protein fluorescence at 330 nm,"[3]; 2 μM compound, excitation 295 nm",3±1%
same,inhibition of cellular removal of CPDs / thymidine dimers (in words),[4],failed to inhibit the cellular removal of CPDs
"COc1ccc2nc3cc(Cl)ccc3c(Nc3cc(CN4CCCC4)c(O)c(CN4CCCC4)c3)c2n1 [Compound D4, pyronaridine, reference compound]",IC50,"[2]; Table 7, read-out: IC50",321 ± 22 nM
same,inhibition of ERCC1-XPF endonuclease activity (in words),[2],potent inhibitor; also recorded: strong inhibitory effect
same,Kd,"[3]; Table 7, read-out: Kd protein",150 ± 10 nM
same,Solubility (in words),[5],Highly soluble
same,LogD (rating),[6]; Table 8,Good
same,logD,[6]; pH 7.4,2.31
same,Cell permeability (Mean recovery %) (in words),[7],Low (common)
same,Microsomal stability in vitro CLint (in words),[8],Moderate
CN1CCN(Cc2cc(N)ccc2O)CC1 [Gen B4],inhibition of ERCC1-XPF endonuclease activity (in words),[2],complete loss of inhibition
CN1CCN(Cc2cc(Nc3c4ccc(Cl)cc4nc4ccc(O)cc34)ccc2O)CC1 [Gen B5],inhibition of ERCC1-XPF endonuclease activity (in words),[2],marked capacity to inhibit
"COc1ccc2nc3cc(Cl)ccc3c(Nc3ccc(O)c(CN4CCN(CCNc5ccccc5)CC4)c3)c2c1 [Gen C-5, 4-((6-Chloro-2-methoxyacridin-9-yl)amino)-2-((4-(2-(phenylamino)ethyl)piperazin-1-yl)methyl)-phenol]","sensitisation to cyclophosphamide, clonogenic survival (in words)",[9],no significant sensitisation effect
